Measurements from patent publication US20050101668A1, “Aminotetralin derivatives as a medicament for the treatment and prevention of myocardial ischemic conditions” (Chiesi Farmaceutici S.p.A., priority 2003, published 2005).

Legend:
[1] = system: isolated perfused rat heart; test: Isolated perfused rat heart, low flow ischemia/reperfusion: heart mechanics (LVEDP, LVDevP, CPP); conditions: antagonist alone 1 μM, pre-ischemic period, mean ± S.E.M.
Protocol: (§1) In brief, the rats were anaesthetized with sodium pentobarbital (60 mg/kg) given by intraperitoneal injection. The chest were opened, and the heart was rapidly excised, and placed in cold (4° C.) heparinized (20 units/ml) Krebs Henseleit solution. […] Coronary perfusion pressure (CPP), left ventricular pressure (LVP) and left ventricular developed pressure (LVDevP; peak left ventricular systolic pressure minus LVEDP) were measured.
(§2) After equilibration of 15 min, hearts were paced at 300 beats/min with an electrical stimulator via two silver electrodes attached to the right atrium and an additional 30 min of perfusion was carried out (pre-ischemic period). Ischemia was induced by reducing the flow rate from 15 ml/min to 1 ml/min for 20 min (ischemic period). A normal flow rate (15 ml/min) was then restored and the perfusion was continued for another 30 min (reperfusion period).

[2] = system: isolated perfused rat heart; test: Creatine kinase (CK) and lactate dehydrogenase (LDH) activities in heart perfusates; conditions: antagonist alone 1 μM; mU/min/g w.w. vs time 20 to 50 min; mean ± S.E.M.
Protocol: as §1, §2
The perfusate, eluted from the heart during pre-ischemic and reperfusion periods, was collected in an ice-cooled beaker as 2.5-min samples collection. Each sample was used for the determination of CK and LDH activities by means of a spectrophotometrical method.

## COC(=O)[C@H]1[C@H]2C[C@H]3c4[nH]c5ccccc5c4CCN3C[C@H]2CC[C@@H]1O [Rauwolscine, rauwolscine]
[1]; mm Hg vs time 0 to 50 min
  AUC related to LVEDP: 505 ± 64
[1]; mm Hg vs time 20 to 50 min
  AUC related to CPP: 1680 ± 98
  AUC related to LVDevP: 912 ± 64
[2]
  AUC related to CK: 5584 ± 297
  AUC related to LDH: 12988 ± 522
